Measurements published in patent US9132138B2, “Method for the treatment of multiple sclerosis” (CASI Pharmaceuticals, Inc., priority 2012, dated 2015).

Assays:
[1] = system: T cells; assay: T cell viability by flow cytometry (Annexin V and propidium iodide); format: cell-based, C57/BL6 mice
Procedure: FIGS. 2A-2E, show proliferation and activation of T cells are inhibited by 2ME2. FIG. 2A, CD4^+ T cells were pre-treated with the indicated concentrations of 2ME2 and stimulated with plate-bound anti-CD3/28 or PMA/iono. Proliferation was assayed 24 hours (left) or 48 hours (right) later by 3H-thymidine incorporation. FIG. 2B, CD4^+ and CD8^+ T cells were stimulated with anti-CD3/28 in the presence of increasing concentrations of 2ME2. CD25 expression was assessed at 6 hours or 24 hours post-stimulation by flow cytometry. FIG. 2C, Quantification of CD25 expression in purified CD4^+ T cells pre-treated with increasing concentrations of 2ME2, and stimulated with anti CD3/28 or PMA/iono for 6 or 24 hours. FIG. 2D, T cells were pretreated with the indicated doses of 2ME2 and left untreated (left) or stimulated using plate-bound anti-CD3/28 (right). Viability was determined 24 hours or 48 hours post-stimulation by flow cytometry. FIG. 2E, human PBMC were activated with anti-human CD3/28 in the presence of increasing concentrations of 2ME2. Proliferation was determined 24 hours or 48 hours later by 3H-thymidine incorporation. Data are mean±SD of triplicate determinations and are representative of three separate donors. For FIG. 2A and FIG. 2E, data shown are the mean±SD of triplicate determinations, and are representative of 3 experiments. For FIG. 2B and FIG. 2C data is representative of two experiments.
Cells were pre-incubated with various concentrations of 2ME2 (Entremed) or vehicle (DMSO) for 30 minutes at 37° C.
Purified CD4^+ T cells were stimulated with plate-bound anti-CD3 (clone 2C11, BD, 10 ng/ml) plus anti-CD28 (clone 37.51, BD, 100 ng/ml). […] CD25 and CD69 expression was determined by flow cytometry (FACSCanto II, BD) and analyzed using FloJo software (Treestar Inc). Proliferation was assessed by 3H-thymidine incorporation. Viability and upregulation of cell surface markers on activated T cells were assessed by flow cytometry using Annexin V and propridium iodide. […]

[2] = molecular target: T1, ERα (Homo sapiens, UniProt P03372); details: cited from earlier work
T1 sequence (P03372 1-595): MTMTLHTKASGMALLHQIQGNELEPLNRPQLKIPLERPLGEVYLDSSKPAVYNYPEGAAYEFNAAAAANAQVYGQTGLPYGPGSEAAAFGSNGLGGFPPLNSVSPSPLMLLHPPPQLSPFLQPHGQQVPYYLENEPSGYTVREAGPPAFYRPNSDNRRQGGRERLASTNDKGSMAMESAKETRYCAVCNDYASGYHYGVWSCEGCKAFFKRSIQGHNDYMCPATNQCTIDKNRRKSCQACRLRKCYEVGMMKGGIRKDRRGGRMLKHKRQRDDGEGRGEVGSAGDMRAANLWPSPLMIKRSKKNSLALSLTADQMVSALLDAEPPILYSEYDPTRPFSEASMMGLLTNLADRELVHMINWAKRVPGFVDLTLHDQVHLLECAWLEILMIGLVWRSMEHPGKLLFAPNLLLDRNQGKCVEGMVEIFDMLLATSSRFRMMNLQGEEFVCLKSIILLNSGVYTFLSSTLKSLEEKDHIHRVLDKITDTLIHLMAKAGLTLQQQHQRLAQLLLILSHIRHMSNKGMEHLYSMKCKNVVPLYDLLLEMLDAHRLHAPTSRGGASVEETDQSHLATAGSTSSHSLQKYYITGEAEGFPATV

COc1cc2c(cc1O)CC[C@@H]1[C@@H]2CC[C@]2(C)[C@@H](O)CC[C@@H]12 [2ME2, 2-Methoxyestradiol]
apoptosis in activated T cells ([1]; 24 hours): none was apparent | apoptosis in un-stimulated T cells ([1]; 24 hours): only a modest 2ME2-dependent increase in apoptosis | viability of activated T cells ([1]; 48 hours post-stimulation): reduced viability | lower affinity than estradiol for ERα [2]: 500 fold
